These results are taken from patent publication US8729076B2, “Secondary 8-hydroxyquinoline-7-carboxamide derivatives” (Polichem SA, priority 2009, dated 2014).

Broadly, the MIC is the lowest concentration that inhibits growth of the organism.

In brackets after ≈: the same amount, converted by molar mass. Like-named read-outs stand apart in the source and are kept apart here.

Type in all cases: cell-based
Assay [1] relates to Candida Albicans (ATCC 90028). Nature of the assay: Broth micro-dilution antifungal susceptibility test (MIC). The following applies: 35° C. The method, then: (§1) Trichophyton Rubrum (ATCC 28188, PBI International); Trichophyton Mentagrophytes (ATCC 9533, PBI International); Aspergillus Niger (ATCC 16404, PBI International); Scopulariopsis Brevicaulis (ATCC 36840, DSMZ); Candida Albicans (ATCC 90028, PBI International); Candida Glabrata (ATCC 90030, DSMZ).
(§2) Compounds' minimal inhibition concentration (MIC) was determined through broth micro-dilution susceptibility test using a method developed in agreement with the National Committee for Clinical Laboratory Standards (NCCLS) (National Committee for Clinical Laboratory Standards. Reference Method for Broth Dilution Antifungal Susceptibility Testing of Yeasts; Approved standard-Second Edition M27-A2. 2002; Vol. 22, No. 15) (National Committee for Clinical Laboratory Standards. Reference Method for Broth Dilution Antifungal Susceptibility Testing of Filamentous Fungi; Approved standard M38-A. 2002; Vol. 22, No. 16).
(§3) Assays were carried out in RPMI 1640 with L-glutamine medium buffered to pH 7 with 0.165M 3-(N-morpholino)propanesulfonic acid (MOPS) and 10M NaOH and supplemented with 18 g glucose/liter. The tests were performed using 96 well sterile plates (inoculum size of 1×10^5 CFU/mL). Compounds stock solutions were prepared at 12.8 mg/mL in 100% DMSO. A series of twofold dilutions were prepared in plate using RPMI 1640. Final concentrations ranged from 0.125 to 128 μg/mL at 1% DMSO.

For assay [2], the system named is Trichophyton Rubrum (ATCC 28188). The assay is described as above. The following applies: ATCC28188, 120 h, 35° C. The method, then: as §1, §2, §3
For assay [3], the system named is Candida Glabrata (ATCC 90030). The assay is described as above. As to conditions: Nakaseomyces glabratus, ATCC90030, 48 h, 35° C. Here is the method: as §1, §2, §3
The test system of assay [4] is Aspergillus Niger (ATCC 16404). Described as above. The following applies: ATCC16404, 120 h, 35° C. The method, then:
as §1, §2, §3

For assay [5], the system named is Scopulariopsis Brevicaulis (ATCC 36840). Described as above. The following applies: ATCC36840, 120 h, 35° C. The method, then:
as §1, §2, §3

In assay [6] the test system is Trichophyton Mentagrophytes (ATCC 9533). The assay is described as above. As to conditions: ATCC9533, 120 h, 35° C. The method, then: as §1, §2, §3
Assay [7] concerns 6 strains tested, including yeasts, dermatophytes and molds. Nature of the assay: Antifungal spectrum over the 6 strains tested (MIC test). The following applies: 6 strains: yeasts. The method, then: as §1, §2, §3
For assay [8], the system named is Candida Glabrata (ATCC 90030). Nature of the assay: Assessment of the mechanism of action: antifungal activity with or without 100 μM Fe3+. As to conditions: 100 μM FeCl3 in the test medium; OD at 540 nm. The method, then: To verify if the compounds mechanism of action is the chelation of iron ions, the MIC determination with Candida glabrata (ATCC 90030) strain was performed by the addition of excessive iron ions (100 μM FeCl3) in the test medium. The viability of cells exposed to drugs, with or without the metal ion Fe^3+, was evaluated by the OD measure at 540 nm.
Compounds described in Example 2, E8 and NiK-29298 were evaluated in presence and in absence of 100 μM (100 micromoles) Fe^3+.
In all figures, the lines and dots represent the percent inhibition of the fungal growth (in ordinate) by adding different concentrations of antifungal agents (in abscissa). Blue lines and dots are the experiments performed without iron supplementation, while red lines and dots represent the results of the experiments performed in presence of 100 μM Fe^3+. […] Conversely, Fe^3+ has no effect on amphotericin, an antifungal agent known in the art to have a mechanism of action different from that of ciclopirox.

[9] abbreviates: ATCC90028, geometric means of two single experiments, 48 h, Table 3.
[10] abbreviates: geometric means of two single experiments, five days, Table 3, read-out: MIC Trycophyton Rubrum ATCC 28188.
[11] abbreviates: geometric means of two single experiments, Table 3.
[12] abbreviates: geometric means of two single experiments, five days, Table 3.
[13] abbreviates: geometric means of two single experiments, five days, Table 3, read-out: MIC Tricophyton Mentagrophytes ATCC 9533.
Where [14] appears, read: ATCC90028, comparison compounds, Table 5, 48 h.
Where [15] appears, read: comparison compounds, Table 5, five days, read-out: MIC Trycophyton Rubrum ATCC 28188.
Setting [16] is: comparison compounds, Table 5, five days.
Where [17] appears, read: comparison compounds, Table 5, five days, read-out: MIC Tricophyton Mentagrophytes ATCC 9533.

Regarding `O=C(Nc1ccc2c(c1)OCCO2)c1ccc2cccnc2c1O` [Example 9, 8-Hydroxy-N-(2,3-dihydrobenzo[b][1,4]dioxin-6-yl)quinoline-7-carboxamide], the MIC in assay [1] (setting [9]) turned out to be 2 µg/mL (≈ 6.21 µM); in assay [2] (setting [10]), 0.25 µg/mL (≈ 0.776 µM); in assay [3] (setting [11]), 2 µg/mL (≈ 6.21 µM); in assay [4] (setting [12]), 1 µg/mL (≈ 3.1 µM); in assay [5] (setting [12]) it was 1 µg/mL (≈ 3.1 µM); in assay [6] (setting [13]), 0.5 µg/mL (≈ 1.55 µM).
Regarding `Cc1csc(CNC(=O)c2ccc3cccnc3c2O)n1` [Example 12, 8-Hydroxy-N-((4-methylthiazol-2-yl)methyl)quinoline-7-carboxamide], the MIC in assay [1] (setting [9]) stood at 2 µg/mL (≈ 6.68 µM); in assay [2] (setting [10]), 1.41 µg/mL (≈ 4.71 µM); in assay [3] (setting [11]), 2 µg/mL (≈ 6.68 µM); in assay [4] (setting [12]), 1 µg/mL (≈ 3.34 µM); in assay [5] (setting [12]), 1 µg/mL (≈ 3.34 µM); in assay [6] (setting [13]), 2.83 µg/mL (≈ 9.45 µM).
Regarding `Cc1cc(CNC(=O)c2ccc3cccnc3c2O)no1` [Example 11, 8-Hydroxy-N-((5-methylisoxazol-3-yl)methyl)quinoline-7-carboxamide], the MIC came to 2 µg/mL (≈ 7.06 µM) in assay [1] (setting [9]); 1 µg/mL (≈ 3.53 µM) in assay [2] (setting [10]); 2 µg/mL (≈ 7.06 µM) in assay [3] (setting [11]); 1 µg/mL (≈ 3.53 µM) in assay [4] (setting [12]); 2.83 µg/mL (≈ 9.99 µM) in assay [5] (setting [12]); 4 µg/mL (≈ 14.1 µM) in assay [6] (setting [13]).
For `O=C(NCc1nc2ccccc2s1)c1ccc2cccnc2c1O` [Example 14, 8-Hydroxy-N-(benzo[d]thiazol-2-ylmethyl)quinoline-7-carboxamide], the MIC in assay [1] (setting [9]) is 2 µg/mL (≈ 5.96 µM); in assay [2] (setting [10]), 2 µg/mL (≈ 5.96 µM); in assay [3] (setting [11]) it was 2.83 µg/mL (≈ 8.44 µM); in assay [4] (setting [12]), 0.5 µg/mL (≈ 1.49 µM); in assay [5] (setting [12]), 1 µg/mL (≈ 2.98 µM); in assay [6] (setting [13]), 1 µg/mL (≈ 2.98 µM).
On to `O=C(NCc1ccc(N2CCOCC2)cc1)c1ccc2cccnc2c1O` [Example 10, 8-Hydroxy-N-(4-morpholinobenzyl)quinoline-7-carboxamide], for which the MIC is 4 µg/mL (≈ 11 µM) in assay [1] (setting [9]); 1 µg/mL (≈ 2.75 µM) in assay [2] (setting [10]); 2 µg/mL (≈ 5.5 µM) in assay [3] (setting [11]); 0.5 µg/mL (≈ 1.38 µM) in assay [4] (setting [12]); 4 µg/mL (≈ 11 µM) in assay [5] (setting [12]); 0.5 µg/mL (≈ 1.38 µM) in assay [6] (setting [13]).
Regarding `O=C(NCc1ccccc1)c1ccc2ncccc2c1` [NiK-29298, reference compound], the “Spectrum of antifungal activity on the strains tested” value in assay [7] was “active only on yeasts”. Also, the MIC in assay [1] (setting [14]) was 2 µg/mL (≈ 7.62 µM); in assay [2] (setting [15]) it was over 128 µg/mL; in assay [3] (comparison compounds, Table 5), 5.65 µg/mL (≈ 21.5 µM); in assay [4] (setting [16]), 64 to 128 µg/mL (≈ 244 to 488 µM); in assay [5] (setting [16]), over 128 µg/mL; in assay [6] (setting [17]) it was 128 µg/mL (≈ 488 µM). In assay [8], the “Effect of Fe3+ on antifungal activity” value is listed as “not inhibited”.
As for `CN(C)c1ccc(CNC(=O)c2ccc3cccnc3c2O)cc1` [Example 4, 8-Hydroxy-N-(4-(dimethylamino)benzyl)quinoline-7-carboxamide], the MIC is 2.83 µg/mL (≈ 8.81 µM) in assay [1] (setting [9]); 1 µg/mL (≈ 3.11 µM) in assay [2] (setting [10]); 1.41 µg/mL (≈ 4.39 µM) in assay [3] (setting [11]); 0.5 µg/mL (≈ 1.56 µM) in assay [4] (setting [12]); 1 µg/mL (≈ 3.11 µM) in assay [5] (setting [12]); 0.71 µg/mL (≈ 2.21 µM) in assay [6] (setting [13]).
Regarding `C[C@@H]1[C@H](O)[C@@H](C)/C=C/C=C/C=C/C=C/C=C/C=C/C=C/[C@H](O[C@@H]2O[C@H](C)[C@@H](O)[C@H](N)[C@@H]2O)C[C@@H]2O[C@](O)(C[C@@H](O)C[C@@H](O)[C@H](O)CC[C@@H](O)C[C@@H](O)CC(=O)O[C@H]1C)C[C@H](O)[C@H]2C(=O)O` [amphotericin], the “Effect of Fe3+ on antifungal activity” value in assay [8] is listed as “no effect”.
On the same count and under the same terms, in the case of `Cc1cc(C2CCCCC2)n(O)c(=O)c1` [ciclopirox] it was “completely inhibited”.
In the case of `O=C(NCc1ccc(Br)cc1)c1ccc2cccnc2c1O` [Example 2, 8-Hydroxy-N-(4-bromobenzyl)quinoline-7-carboxamide], the MIC in assay [1] (setting [9]) worked out at 1.41 µg/mL (≈ 3.95 µM); in assay [2] (setting [10]), 1.41 µg/mL (≈ 3.95 µM); in assay [3] (setting [11]), 1.41 µg/mL (≈ 3.95 µM); in assay [4] (setting [12]), 0.71 µg/mL (≈ 1.99 µM); in assay [5] (setting [12]) it was 1.41 µg/mL (≈ 3.95 µM); in assay [6] (setting [13]) it was 1 µg/mL (≈ 2.8 µM).
As for `O=C(NCc1ccc(OCc2ccccc2)cc1)c1ccc2ncccc2c1` [Example E8, reference compound], in assay [7], the “Spectrum of antifungal activity on the strains tested” value is listed as “active only on yeasts”. For the same compound, the MIC was 1.41 µg/mL (≈ 3.83 µM) in assay [1] (setting [14]); over 128 µg/mL in assay [2] (setting [15]); 1 µg/mL (≈ 2.71 µM) in assay [3] (comparison compounds, Table 5); 2 to 128 µg/mL (≈ 5.43 to 347 µM) in assay [4] (setting [16]); over 128 µg/mL in assay [5] (setting [16]); 75 µg/mL (≈ 204 µM) in assay [6] (setting [17]). Moreover, the “Effect of Fe3+ on antifungal activity” value in assay [8] is recorded as “not inhibited”.
Regarding `O=C(Nc1ccc(-n2cncn2)cc1)c1ccc2cccnc2c1O` [Example 7, 8-Hydroxy-N-(4-(1H-1,2,4-triazol-1-yl)phenyl)quinoline-7-carboxamide], the MIC in assay [1] (setting [9]) was 2 µg/mL (≈ 6.04 µM); in assay [2] (setting [10]), 2.52 µg/mL (≈ 7.61 µM); in assay [3] (setting [11]), 2.83 µg/mL (≈ 8.54 µM); in assay [4] (setting [12]), 1 µg/mL (≈ 3.02 µM); in assay [5] (setting [12]), 1.26 µg/mL (≈ 3.8 µM); in assay [6] (setting [13]), 2 µg/mL (≈ 6.04 µM).
For `O=C(NCc1ccccn1)c1ccc2cccnc2c1O` [Example 1, 8-Hydroxy-N-(pyridin-2-ylmethyl)quinoline-7-carboxamide], the MIC in assay [1] (setting [9]) amounted to 4 µg/mL (≈ 14.3 µM); in assay [2] (setting [10]), 2 µg/mL (≈ 7.16 µM); in assay [3] (setting [11]), 4 µg/mL (≈ 14.3 µM); in assay [4] (setting [12]) it was 0.5 µg/mL (≈ 1.79 µM); in assay [5] (setting [12]) it was 1 µg/mL (≈ 3.58 µM); in assay [6] (setting [13]) it was 2 µg/mL (≈ 7.16 µM).
